Data as given in patent US9914730B2, “Azaquinazoline inhibitors of Atypical protein Kinase C” (Ignyta, Inc., priority 2012, dated 2018).

These compounds were tested against T1, full-length human PKCι (Homo sapiens, UniProt P41743) (assay: PKCι IC50 IMAP assay, full-length PKCι at 150 μM ATP). Settings: read-out: IC50 in IMAP assay against full length PKCi at 150 μM ATP.
T1 construct: Recombinant, full-length human PKCι expressed in Sf21 insect cells is also commercially available; purchased; host or cells: Sf21 insect cells
T1 sequence (P41743 1-596): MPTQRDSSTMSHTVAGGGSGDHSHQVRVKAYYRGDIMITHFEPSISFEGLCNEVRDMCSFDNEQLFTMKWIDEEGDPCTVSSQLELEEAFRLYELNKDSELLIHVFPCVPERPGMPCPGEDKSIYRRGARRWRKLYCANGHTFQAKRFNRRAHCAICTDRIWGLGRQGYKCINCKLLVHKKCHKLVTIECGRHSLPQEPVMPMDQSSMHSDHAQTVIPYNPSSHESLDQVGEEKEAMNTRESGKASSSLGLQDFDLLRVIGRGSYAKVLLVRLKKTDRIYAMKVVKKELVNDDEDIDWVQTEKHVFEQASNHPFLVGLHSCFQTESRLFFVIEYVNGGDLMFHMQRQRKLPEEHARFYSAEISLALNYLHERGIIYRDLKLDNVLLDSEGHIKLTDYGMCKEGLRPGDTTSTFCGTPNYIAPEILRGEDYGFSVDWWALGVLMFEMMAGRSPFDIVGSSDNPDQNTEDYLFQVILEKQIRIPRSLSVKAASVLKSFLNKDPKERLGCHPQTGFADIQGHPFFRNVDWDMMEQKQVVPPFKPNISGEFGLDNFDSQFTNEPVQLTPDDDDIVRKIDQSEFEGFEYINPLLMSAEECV
Format: biochemical
Source text: Assays are based on the ability of PKCι to phosphorylate a commercially available peptide substrate in vitro. The peptide substrate is FAM-PKCε pseudopeptide derived peptide, and comprises the amino acid sequence 5FAM-[…]-NH2. Recombinant, full-length human PKCι expressed in Sf21 insect cells is also commercially available. Recombinant, kinase-domain human PKCι is expressed and purified in-house.
The procedure below explains how dose response curves for inhibitors of PKCι are obtained. The screen described is for a 384 well format but the assay can be adapted to 1536 or other formats as required.
Compounds to be tested are dissolved in 100% DMSO. Compounds are diluted as required to give a final concentration of 4% DMSO (v/v) in the assay. 1 μl is plated into 384 well black low-binding flat bottomed assay plates which are used immediately. Dilutions and additions of compound to assay plates are carried out using Matrix WellMate® and Matrix PlateMate® Plus liquid handling systems.
On the day of the screen PKCι/substrate working solution, and ATP working solution, are prepared in buffer containing 20 mM tris-HCl pH7.5, 10 mM MgCl2, 0.01% Triton X100, 250 μM EGTA and 1 mM DTT. The final concentration of PKCι used varies depending on the batch of protein but is typically 15 pM. The final concentration of peptide substrate in the assay is 100 nM. ATP is used at a final concentration of 150 μM or 25 μM in the assays containing full-length or kinase-domain PKCι respectively, which corresponds to five times or equal to the KM^APP for ATP for each enzyme, respectively. The final buffer concentration in the assay is 18 mM tris-HCl pH7.5, 9 mM MgCl2, 0.009% Triton X100, 225 μM EGTA and 0.9 mM DTT. Relevant controls are included, namely no compound and no enzyme. 5 μl PKCι/substrate working solution at 30 pM and 200 nM, respectively, is added to the wells, followed by 4 μl ATP working solution at 375 μM or 62.5 μM for full-length or kinase-domain PKCι respectively, using a 16 channel Matrix pipette. The reaction is allowed to incubate for 60 minutes at room temperature, before the reaction is stopped and developed by the addition of 20 μl IMAP™ development reagent (Molecular Devices). IMAP development reagent consists of 0.25% (v/v) IMAP progressive binding reagent, 17% (v/v) IMAP progressive binding buffer A and 3% (v/v) IMAP progressive binding buffer B. The plates are then incubated for 2 hours at room temperature before being read using an appropriate plate reader, for example a Molecular Devices HT Analyst or a BMG Pherastar. Plates are read using a fluorescence polarisation protocol with excitation at 485 nm and emission at 530 nm, and dichroic mirror at 505 nm.
Percentage inhibition values are calculated from fluorescence polarisation values, using the no compound and no enzyme control values as 0% and 100% inhibition, respectively. IC50 determination is performed with ExcelFit software (IDBS) using curve fit 205. Z′ factors are determined for each plate tested and are all above 0.5.

| IC50 | Compound |
| --- | --- |
| < 100 nM | (3-Chloro-2,6- difluoro-phenyl)- [4-(5-cyclopropyl- 4-piperazin-1-yl- pyrido[3,4- d]pyrimidin-2-yl)- pyridin-2-yl]- amine [Example 649] |
| 100 to 1000 nM | COc1cncc2nc(-c3ccncc3)nc(N[C@@H]3CCNC3)c12 [Example 2, (5-Methoxy-2-pyridin-4-yl-pyrido[3,4-d]pyrimidin-4-yl)-(R)-pyrrolidin-3-yl-amine] |
| < 100 nM | Fc1ccnc(F)c1Nc1cc(-c2nc(N3CCNCC3)c3c(C4CC4)cncc3n2)ccn1 [Example 670, [4-(5-Cyclopropyl-4-piperazin-1-yl-pyrido[3,4-d]pyrimidin-2-yl)-pyridin-2-yl]-(2,4-difluoro-pyridin-3-yl)-amine] |
| 100 to 1000 nM | NC(=O)N1CCN(c2nc(-c3ccnc(Nc4ccccc4)c3)nc3cncc(C4CC4)c23)CC1 [Example 638, 4-[5-Cyclopropyl-2-(2-phenylamino-pyridin-4-yl)-pyrido[3,4-d]pyrimidin-4-yl]-piperazine-1-carboxylic acidamide] |
| 100 to 1000 nM | OCCN1CCN(c2nc(-c3ccnc(Nc4ccccc4)c3)nc3cncc(C4CC4)c23)CC1 [Example 606, 2-{4-[5-Cyclopropyl-2-(2-phenylamino-pyridin-4-yl)-pyrido[3,4-d]pyrimidin-4-yl]-piperazin-1-yl}-ethanol] |
| 1000 to 10000 nM | N[C@H](CNc1nc(-c2ccncc2)nc2c(-c3ccc4[nH]cnc4c3)nccc12)Cc1ccccc1 [Example 116, N-[(2S)-2-amino-3-phenylpropyl]-8-(1H-1,3-benzodiazol-5-yl)-2-(pyridin-4-yl)pyrido[3,4-d]pyrimidin-4-amine] |
| 100 to 1000 nM | Fc1cccc(F)c1Nc1cc(-c2nc(NC[C@@H]3CCCN3)c3c(C4CC4)cncc3n2)ccn1 [Example 698, {5-Cyclopropyl-2-[2-(2,6-difluoro-phenylamino)-pyridin-4-yl]-pyrido[3,4-d]pyrimidin-4-yl}-(S)-1-pyrrolidin-2-ylmethyl-amine] |
| 10000 to 40000 nM | CN1CCCN(c2nc(-c3ccncc3)nc3cnccc23)CC1 [Example 19, 1-methyl-4-[2-(pyridin-4-yl)-pyrido[3,4-d]-pyrimidin-4-yl]-1,4-diazepane] |
| 1000 to 10000 nM | CC(C)Cn1cc(-c2nccc3c(NC[C@@H](N)Cc4ccccc4)nc(-c4ccncc4)nc23)cn1 [Example 101, N-[(2S)-2-amino-3-phenylpropyl]-8-[1-(2-methyl-propyl)-1H-pyrazol-4-yl]-2-(pyridin-4-yl)-pyrido[3,4-d]-pyrimidin-4-amine] |
| 100 to 1000 nM | COc1cncc2nc(-c3ccnc(Nc4ccccc4)c3)nc(N3CCC(O)C(O)C3)c12 (single isomer, unassigned) [Example 457, (3R,4R)-1-[5-Methoxy-2-(2-phenylamino-pyridin-4-yl)-pyrido[3,4-d]pyrimidin-4-yl]-piperidine-3,4-diol or (3S,4S)-1-[5-Methoxy-2-(2-phenylamino-pyridin-4-yl)-pyrido[3,4-d]pyrimidin-4-yl]-piperidine-3,4-diol] |
| < 100 nM | Clc1ccnc(Nc2cc(-c3nc(N[C@@H]4CCNC4)c4ccncc4n3)ccn2)c1 [Example 339, {2-[2-(4-Chloro-pyridin-2-ylamino)-pyridin-4-yl]-pyrido[3,4-d]pyrimidin-4-yl}-(R)-pyrrolidin-3-yl-amine] |
| < 100 nM | CC1CN(c2nc(-c3ccnc(Nc4nc(F)ccc4F)c3)nc3cncc(C4CC4)c23)CC(C)N1 (stereo not drawn) [Example 763, {4-[5-Cyclopropyl-4-(3,5-dimethyl-piperazin-1-yl)-pyrido[3,4-d]pyrimidin-2-yl]-pyridin-2-yl}-(3,6-difluoro-pyridin-2-yl)-amine] |
| < 100 nM | CC1(C)CN(c2nc(-c3ccnc(Nc4ncccc4F)c3)nc3cncc(C4CC4)c23)CCN1 [Example 840, {4-[5-Cyclopropyl-4-(3,3-dimethyl-piperazin-1-yl)-pyrido[3,4-d]pyrimidin-2-yl]-pyridin-2-yl}-(3-fluoro-pyridin-2-yl)-amine] |
| < 100 nM | Clc1cncc2nc(-c3ccncc3)nc(N3CCNCC3)c12 [Example 132, 5-Chloro-4-piperazin-1-yl-2-pyridin-4-yl-pyrido[3,4-d]pyrimidine] |
| 1000 to 10000 nM | COc1cncc2nc(-c3ccncc3)nc(N3CCN[C@@H](Cc4ccccc4)C3)c12 [Example 30, (3S)-3-benzyl-1-[5-methoxy-2-(pyridin-4-yl)-pyrido[3,4-d]-pyrimidin-4-yl]-piperazine] |
| < 100 nM | COc1cncc2nc(-c3ccnc(NC(=O)Cc4cccc(Cl)c4)c3)nc(N3CCNCC3)c12 [Example 370, 2-(3-Chloro-phenyl)-N-[4-(5-methoxy-4-piperazin-1-yl-pyrido[3,4-d]pyrimidin-2-yl)-pyridin-2-yl]-acetamide] |
| 100 to 1000 nM | COc1cncc2nc(-c3ccnc(Nc4cc(F)c(F)cc4F)c3)nc(N3CCNCC3)c12 [Example 455, [4-(5-Methoxy-4-piperazin-1-yl-pyrido[3,4-d]pyrimidin-2-yl)-pyridin-2-yl]-(2,4,5-trifluoro-phenyl)-amine] |
| 100 to 1000 nM | COc1cncc2nc(-c3ccnc(NC(=O)[C@@H](C)c4ccccc4)c3)nc(N[C@@H]3CCNC3)c12 [Example 407, (S)-N-{4-[5-Methoxy-4-((R)-pyrrolidin-3-ylamino)-pyrido[3,4-d]pyrimidin-2-yl]-pyridin-2-yl}-2-phenyl-propionamide] |
| 100 to 1000 nM | COc1cncc2nc(-c3ccnc(Nc4ncccc4C)c3)nc(N3CCNCC3)c12 [Example 410, [4-(5-Methoxy-4-piperazin-1-yl-pyrido[3,4-d]pyrimidin-2-yl)-pyridin-2-yl]-(3-methyl-pyridin-2-yl)-amine] |
| 100 to 1000 nM | Cc1ccc(C(F)(F)F)cc1Nc1cc(-c2nc(N3CCNCC3)c3c(C4CC4)cncc3n2)ccn1 [Example 554, [4-(5-Cyclopropyl-4-piperazin-1-yl-pyrido[3,4-d]pyrimidin-2-yl)-pyridin-2-yl]-(2-methyl-5-trifluoromethyl-phenyl)-amine] |
| < 100 nM | Cc1nc(Nc2cc(-c3nc(N4CCNCC4)c4c(C5CC5)cncc4n3)ccn2)oc1C [Example 272, [4-(5-Cyclopropyl-4-piperazin-1-yl-pyrido[3,4-d]pyrimidin-2-yl)-pyridin-2-yl]-(4,5-dimethyl-oxazol-2-yl)-amine] |
| 1000 to 10000 nM | COc1cncc2nc(-c3ccnc(Nc4ccccc4)c3)nc(N3CCC(N4CCOCC4)CC3)c12 [Example 354, {4-[5-Methoxy-4-(4-morpholin-4-yl-piperidin-1-yl)-pyrido[3,4-d]pyrimidin-2-yl]-pyridin-2-yl}-phenyl-amine] |
| < 100 nM | COc1cncc2nc(-c3ccnc(Nc4c(F)cccc4F)c3)nc(N3CCNCC3)c12 [Example 421, (2,6-Difluoro-phenyl)-[4-(5-methoxy-4-piperazin-1-yl-pyrido[3,4-d]pyrimidin-2-yl)-pyridin-2-yl]-amine] |
| 10000 to 40000 nM | Cn1c(C(F)(F)F)cc2c(-c3nc(N[C@@H]4CCNC4)c4c(C5CC5)cncc4n3)ccnc21 [Example 2077, [5-Cyclopropyl-2-(1-methyl-2-trifluoromethyl-1H-pyrrolo[2,3-b]pyridin-4-yl)-pyrido[3,4-d]pyrimidin-4-yl]-(R)-pyrrolidin-3-yl-amine] |
